Values of other authors in patent publication US20110081416A1, “ORDERED MESOPOROUS SILICA MATERIAL” (FORMAC Pharmaceuticals N.V., priority 2008, published 2011).
Each block holds one compound with its values, some of them ahead of it.

Assays:
[1] = Table 3, acids with a pKa of less than 2
[2] = not given; remark: listed apart in the source

solubility in alcohol and acetone (in words) (alcohol and acetone): soluble
solubility in water (in words): practically insoluble
SMILES: NC(=O)N1c2ccccc2C=Cc2ccccc21 [Carbamazepine, 5H-dibenz[b,f]azepine-5-carboxamide]

pKa [1]: 1.90
SMILES: O=S(=O)(O)NC1CCCCC1 [cyclamic acid]

pKa [1]: 1.81
SMILES: O=S(O)O [sulfurous acid]

solubility in water (in words): insoluble
SMILES: CC(=O)O[C@H]1C(=O)[C@@]2(C)[C@H]([C@H](OC(=O)c3ccccc3)[C@]3(O)C[C@H](OC(=O)[C@H](O)[C@@H](NC(=O)c4ccccc4)c4ccccc4)C(C)=C1C3(C)C)[C@]1(OC(C)=O)CO[C@@H]1C[C@@H]2O [Paclitaxel]

absolute bioavailability ([2]; 5 mg dose taken twice a day): approximately 17%
solubility in ethanol (in words) (ethanol): freely soluble
solubility in methanol and chloroform (in words) (methanol and chloroform): very soluble
solubility in water (in words): practically insoluble
SMILES: C=CC[C@@H]1/C=C(\C)C[C@H](C)C[C@H](OC)[C@H]2O[C@@](O)(C(=O)C(=O)N3CCCC[C@H]3C(=O)O[C@H](/C(C)=C/[C@@H]3CC[C@@H](O)[C@H](OC)C3)[C@H](C)[C@@H](O)CC1=O)[C@H](C)C[C@@H]2OC [Tacrolimus]

solubility in water (in words): poorly soluble
SMILES: CCC(C)n1ncn(-c2ccc(N3CCN(c4ccc(OCC5COC(Cn6cncn6)(c6ccc(Cl)cc6Cl)O5)cc4)CC3)cc2)c1=O (stereo not shown) [Itraconazole]

increase in plasma concentration on doubling the dose ([2]; doubling the dose): 30-40%
half-life ([2]; in vivo): 4 to 5 h
time of peak (plasma) concentrations ([2]; oral): ≤ 2 h
SMILES: C#C[C@]1(O)CC[C@H]2[C@@H]3CCC4=Cc5oncc5C[C@]4(C)[C@H]3CC[C@@]21C [Danazol, 17a-Pregna-2,4-dien-20-yno[2,3-d]-isoxazol-17-ol]
